Source: US6348445B1, “Biologically active peptides with reduced toxicity in animals and a method for preparing same” (priority 1992, dated 2002)
Values after ≈ are worked out from the molar mass of the structure shown. *1 amine or outer side, *2 acyl side, *3 side chain or, on linkers, in order; H or OH if unused. Where a SMILES comes first, the peptide text is derived from it. [ ]: non-standard residue; d: D form. The star is where a group is joined. X1 = O=C([C@H](CCCCNCS(=O)(=O)O)N[*:1])[*:2]; Octanoyl = CCCCCCCC(=O)*

Assays:
[1] = maximal tolerated dose, single intravenous administration of Compound 1324; assay type: in vivo, mice; settings: for Number of Survivors on Day 0: 2 or 6.5 hrs post-administration
Procedure: Mice received single intravenous administrations of Compound 1324, the methane sulfonate analogue of Compound 843, and were monitored for survival for at least 4 days. There were no deaths at a dose of less than or equal to 180 mg/kg.
To determine the maximal tolerated dose (MTD) and estimate the lethal dose 50% (LD50) of Compound 1324 sodium when administered intravenously in a single-bolus in mice.
Animals: On arrival and study initiation, three groups Thirty-seven male CD-1 mice (Charles River Lab)had average body weights of 39, 28 and 28 gm, respectively.
Solution Prep: A 120 mg/ml of active Compound 1324 (active moiety corrected for) was made in saline. All concentrations from 5 mg/ml to 80 mg/ml were dilutions of the 120 mg/ml solution with saline. The highest concentration used in the intravenous administration was 20 mg/ml.
Mice were randomly assigned to one of ten groups (4 mice per group, except the highest dose group which only had one mouse). Mice were administered intravenously 10 ml/kg of either 0 (saline), 5, 6, 7, 8, 14, 16, 18, or 20 mg/ml solution for doses of […]. One mouse received 14.1 ml/kg of a 20 mg/ml solution for a dose of 282 mg/kg. Mice were monitored for survival for at least four days post-administration.

[2] = pharmacokinetics, single intravenous dose, plasma bioassay (E. coli zone clearing); assay type: in vivo, mice; settings: 140 mg/kg i.v.
Procedure: A pharmacokinetics study of MSI-1324 in mice using a single dose administration was conducted. Thirty-two CD-1 male mice were injected with MSI-1324 sodium with a dose of 140 mg/kg (corrected for peptide content). Terminal blood samples were obtained from 2 to 4 mice at timepoints of 0 (prior to dosing), 5, 15, 30, 60 min, 2, 4, 6, 24, and 48 hours post-dose. Plasma concentrations were estimated by bioassay.
40 animals CD-1®BR mice (Charles River Lab) with a mean body weight of 25.6 gms at study initiation were used.
A 14 mg/mL solution of MSI-1324 was made in saline (0.9% sodium chloride injectable USP, Baxter) corrected for peptide content.
Thirty-six mice were intravenously administered a single bolus of MSI-1324 at a dose of 140 mg/kg corrected for peptide content using an injection volume of 10 mL/kg of the 14 mg/mL solution. Four mice were not injected and supplied pre-dosing blood samples. Terminal blood samples were obtained via cardiac puncture in halothane-anesthetized mice at timepoints of 0 (prior to dosing), 5, 15, 30, 60 min, 2, 4, 6, 24, and 48 hours post-dose. Two to four mice were terminally bled at each timepoint. The blood samples were centrifuged and plasma transferred into separate tubes for bioassay analysis. The bioassay used was antibacterial zone clearing (disk diffusion) on Escherichia coli lawns.

[3] = tested on: P. aeruginosa strain ATCC 27853; assay type: cell-based; settings: ATCC 27853
How it was run: (§1)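 Broth microdilution per NCCLS M7-T2: final peptide levels 0.25 to 256 μg/ml (twofold steps), inoculum 1-5×10^5 CFUs/ml in full-strength Mueller Hinton broth. MIC read as lowest concentration leaving the well clear after 16-20 hours at 37° C.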

[4] = tested on: S. aureus ATCC 29213; assay type: cell-based; settings: ATCC 29213
[5] = tested on: C. albicans ATCC 90028; assay type: cell-based; settings: ATCC 90028
Procedure: The procedure for the anti-bacterial assay is based upon the guidelines of the National Committee for Clinical Laboratory Standards, Document M7-T2, Volume 8, No. 8, 1988, which document is entirely incorporated herein by reference.
Stock solutions of peptides, with and without the appropriate substitutions, were prepared at a concentration of 512 μg/ml in sterile deionized distilled water and stored at −70° C.
The stock peptide solution was diluted in serial dilutions (1:2) down the wells of a microtiter plate so that the final concentrations of peptides in the wells were 0.25, 0.50, 1, 2, 4, 8, 16, 32, 64, 128 and 256 μg/ml. 1-5×10^5 CFUs/ml of either S. aureus ATCC 25923, E. coli ATCC 25922, P. aeruginosa ATCC 27853, or C. albicans, were added to the wells in full strength Mueller Hinton broth (BBL 11443) from a mid-log culture. The inoculum was standardized spectrophotometrically at 600 nm and was verified by colony counts. The plates were incubated for 16-20 hours at 37° C., and the minimal inhibitory concentration (MIC) for each peptide was determined. Minimal inhibitory concentration is defined as the lowest concentration of peptide which produces a clear well in the microtiter plate. The minimal inhibitory concentration of each of the peptides with and/or without the appropriate substitutions is given in Table I below.
The in vitro anti-microbial activities of the methane sulfonate derivatives were determined according to the methods described in Examples 1 and 2. The activities against ATCC strains of S. aureus, E. coli, P. aeruginosa, and C. albicans, and the hemolysis of red blood cells were compared to the parent compound (Table IV). The activities for Compound 843 (Oct-SEQ ID NO:143) methane sulfonate against clinical strains of P. aeruginosa isolated from cystic fibrosis patients were compared to the parent compound (Table V). The activity for Compound 469 (Oct-SEQ ID NO:27) methane sulfonate against P. gingivalis was compared to the parent compound (Table VI).

[6] = tested on: P. gingivalis
[7] = tested on: E. coli ATCC strain 25922; test: Minimal Inhibitory Concentration, microtiter broth dilution; assay type: cell-based; settings: ATCC strain 25922
How it was run: as §1

CCCCCCCC(=O)N[C@@H](CCCNCS(=O)(=O)O)C(=O)N[C@@H](CCCNCS(=O)(=O)O)C(=O)N[C@@H](CC(C)C)C(=O)N[C@@H](CC(C)C)C(=O)N[C@@H](CCCNCS(=O)(=O)O)C(=O)N[C@@H](CCCNCS(=O)(=O)O)C(=O)N[C@@H](CC(C)C)C(=O)N[C@@H](CCCNCS(=O)(=O)O)C(=O)N[C@@H](CCCNCS(=O)(=O)O)C(=O)N[C@@H](CC(C)C)C(N)=O [Compound 1324]
mice that survived ([1]; 200 mg/kg single intravenous): Three of four
Number of Survivors on Day 1 ([1]; IV 50 mg/kg, 4 mice): 4
Number of Survivors on Day 2 ([1]; IV 50 mg/kg, 4 mice): 4
Number of Survivors on Day 3 ([1]; IV 50 mg/kg, 4 mice): 4
Number of Survivors on Day 4 ([1]; IV 50 mg/kg, 4 mice): 4
Number of Survivors on Day 5 ([1]; IV 50 mg/kg, 4 mice): 4
Number of Survivors on Day 0 ([1]; IV 50 mg/kg, 4 mice): 4
Number of Survivors on Day 1 ([1]; IV 60 mg/kg, 4 mice): 4
Number of Survivors on Day 2 ([1]; IV 60 mg/kg, 4 mice): 4
Number of Survivors on Day 3 ([1]; IV 60 mg/kg, 4 mice): 4
Number of Survivors on Day 4 ([1]; IV 60 mg/kg, 4 mice): 4
Number of Survivors on Day 5 ([1]; IV 60 mg/kg, 4 mice): 4
Number of Survivors on Day 0 ([1]; IV 60 mg/kg, 4 mice): 4
Number of Survivors on Day 1 ([1]; IV 70 mg/kg, 4 mice): 4
Number of Survivors on Day 2 ([1]; IV 70 mg/kg, 4 mice): 4
Number of Survivors on Day 3 ([1]; IV 70 mg/kg, 4 mice): 4
Number of Survivors on Day 4 ([1]; IV 70 mg/kg, 4 mice): 4
Number of Survivors on Day 5 ([1]; IV 70 mg/kg, 4 mice): 4
Number of Survivors on Day 0 ([1]; IV 70 mg/kg, 4 mice): 4
Number of Survivors on Day 1 ([1]; IV 80 mg/kg, 4 mice): 4
Number of Survivors on Day 2 ([1]; IV 80 mg/kg, 4 mice): 4
Number of Survivors on Day 3 ([1]; IV 80 mg/kg, 4 mice): 4
Number of Survivors on Day 4 ([1]; IV 80 mg/kg, 4 mice): 4
Number of Survivors on Day 5 ([1]; IV 80 mg/kg, 4 mice): 4
Number of Survivors on Day 0 ([1]; IV 80 mg/kg, 4 mice): 4
Number of Survivors on Day 1 ([1]; IV 140 mg/kg, 4 mice): 4
Number of Survivors on Day 2 ([1]; IV 140 mg/kg, 4 mice): 4
Number of Survivors on Day 3 ([1]; IV 140 mg/kg, 4 mice): 4
Number of Survivors on Day 4 ([1]; IV 140 mg/kg, 4 mice): 4
Number of Survivors on Day 5 ([1]; IV 140 mg/kg, 4 mice): 4
Number of Survivors on Day 7 ([1]; IV 140 mg/kg, 4 mice): 4
Number of Survivors on Day 0 ([1]; IV 140 mg/kg, 4 mice): 4
Number of Survivors on Day 1 ([1]; IV 160 mg/kg, 4 mice): 4
Number of Survivors on Day 2 ([1]; IV 160 mg/kg, 4 mice): 4
Number of Survivors on Day 3 ([1]; IV 160 mg/kg, 4 mice): 4
Number of Survivors on Day 4 ([1]; IV 160 mg/kg, 4 mice): 4
Number of Survivors on Day 5 ([1]; IV 160 mg/kg, 4 mice): 4
Number of Survivors on Day 7 ([1]; IV 160 mg/kg, 4 mice): 4
Number of Survivors on Day 0 ([1]; IV 160 mg/kg, 4 mice): 4
Number of Survivors on Day 1 ([1]; IV 180 mg/kg, 4 mice): 4
Number of Survivors on Day 2 ([1]; IV 180 mg/kg, 4 mice): 4
Number of Survivors on Day 3 ([1]; IV 180 mg/kg, 4 mice): 4
Number of Survivors on Day 4 ([1]; IV 180 mg/kg, 4 mice): 4
Number of Survivors on Day 5 ([1]; IV 180 mg/kg, 4 mice): 4
Number of Survivors on Day 7 ([1]; IV 180 mg/kg, 4 mice): 4
Number of Survivors on Day 0 ([1]; IV 180 mg/kg, 4 mice): 4
Number of Survivors on Day 2 ([1]; IV 200 mg/kg, 4 mice): 3
Number of Survivors on Day 3 ([1]; IV 200 mg/kg, 4 mice): 3
Number of Survivors on Day 4 ([1]; IV 200 mg/kg, 4 mice): 3
Number of Survivors on Day 2 ([1]; IV 282 mg/kg, 1 mouse): 0
Number of Survivors on Day 3 ([1]; IV 282 mg/kg, 1 mouse): 0
Number of Survivors on Day 4 ([1]; IV 282 mg/kg, 1 mouse): 0
LD50 ([1]; mouse, in vivo, single intravenous bolus, CD-1 mice): 200 to 282 mg/kg
peak plasma concentration ([2]; estimated by bioassay): approximately 600 ug/mL
time of peak concentration post-dose ([2]; first sampling timepoint): 5 min
plasma concentration at 60 min post-dose ([2]; limit of detection approximately 150 ug/mL, listed as MSI-1324): below detection limits of the assay
level at 1 h ([2]; male, CD-1, mouse, plasma, iv, limit of detection approximately 150 ug/mL, read-out: plasma concentration at 60 min post-dose): < 150 µg/mL

CCCCCCCC(=O)N[C@@H](CCCCNCS(=O)(=O)O)C(=O)N[C@H](C(=O)N[C@@H](C)C(=O)NCC(=O)N[C@@H](CCCCNCS(=O)(=O)O)C(=O)N[C@H](C(=O)N[C@@H](C)C(=O)N[C@@H](CCCCNCS(=O)(=O)O)C(=O)N[C@H](C(=O)N[C@@H](C)C(=O)NCC(=O)N[C@@H](CCCCNCS(=O)(=O)O)C(=O)N[C@H](C(=O)N[C@@H](C)C(=O)N[C@@H](CCCCNCS(=O)(=O)O)C(=O)N[C@H](C(=O)N[C@@H](C)C(=O)NCC(=O)N[C@@H](CCCCNCS(=O)(=O)O)C(=O)N[C@H](C(=O)N[C@@H](C)C(N)=O)[C@@H](C)CC)[C@@H](C)CC)[C@@H](C)CC)[C@@H](C)CC)[C@@H](C)CC)[C@@H](C)CC [Compound 1662] (Octanoyl-[X1]IAG[X1]IA[X1]IAG[X1]IA[X1]IAG[X1]IA-NH2)
MIC P. aeruginosa ATCC 27853 [3]: 32 µg/mL (≈ 11.6 µM)
MIC S. aureus ATCC 29213 [4]: 4 µg/mL (≈ 1.45 µM)
MIC C. albicans ATCC 90028 [5]: 64 µg/mL (≈ 23.2 µM)
MIC P. gingivalis ATTC 33277 [6]: 8 µg/mL (≈ 2.91 µM)
MIC E. coli ATCC 25922 [7]: 8 µg/mL (≈ 2.91 µM)
